Experimental findings from ChEMBL document CHEMBL6121007, “Design, synthesis and evaluation of pyrimidine derivatives as sedative-hypnotic agents” (Eur J Med Chem, 2025) are described below.

The nature of series [1]: Drug concentration in male mouse brain at 10 mg/kg, ip measured after 1 hrs by LC-MS/MS analysis. It is filed as ADME, organism-based. The conditions noted are these: read-out: Ct.
The nature of series [2]: Upregulation of cAMP signaling pathway related genes in hypothalamus of mouse at 2.5 mg/kg, ip measured after 30 mins by KEGG enrichment analysis relative to control. The note with it: 0.5 h. In kind it is functional.
In series [3] the test system is Mus musculus. In words: Sedative-hypnotic activity in pentobarbital-induced mouse assessed as asleep rate at 0.5 to 0.1 mg/kg, ip preadministered with compound for 20 mins followed by pentobarbital administration and measured within 15 mins (reference value: 12.5 %). In kind it is functional. The conditions noted are these: dose 0.5-0.1 mg/kg, time <= 35 min, at 0.1 to 0.5 mg/kg.

Series [4] can be described thus: Ratio of drug concentration in male mouse brain to plasma at 10 mg/kg, ip measured after 1 hrs by LC-MS/MS analysis. It is filed as ADME, organism-based. The note with it: brain and plasma, read-out: BPR.
For series [5], the system named is Mus musculus. Briefly: Upregulation of apoptosis related genes in hypothalamus of mouse at 2.5 mg/kg, ip measured after 30 mins by KEGG enrichment analysis relative to control. It is filed as functional. The conditions noted are these: 0.5 h.

Consider `CCn1c2ccccc2c2cc(Nc3ccnc(Nc4ccc(C)c(OC)c4)n3)ccc21`, for which the concentration at 1 h in series [1] turned out to be 15 ng/mL. In addition, the Activity is 4.62% in series [2], 75% in the series with Mus musculus [3] and 3.47% with Mus musculus [5]. Further, the Kp at 1 h in series [4] is 0.2.
